Data from US20220017863A1, “SIRT2-ABLATED CHIMERIC T CELLS” (H. Lee Moffitt Cancer Center and Research Institute, Inc., priority 2019, published 2022).
“Also recorded” adds a separate entry of the source.

Experiments:
[1] = test system: CD3-stimulated CD3+ splenic T cells; assay: Seahorse OCR of activated CD3+ splenic T cells with mitochondrial fuel pathway inhibitors; type: cell-based, mouse; conditions: for maximal respiration: activated Sirt2−/− CD3+ T cells; for maximal respiration (in response of FCCP): activated WT CD3+ T cells
Procedure: (§1) Extracellular acidification rate (ECAR) and oxygen consumption rate (OCR) were measured using the Seahorse XF analyzer (Agilent technologies). Glycolysis Stress Test (GST), glycolytic rate assay (GRA) and mitochondrial stress test (MST) were purchased from Agilent technologies and performed according to the kit manufacturer's instructions.
(§2) The day of the assay, 2×10^5 activated T cells were plated in Cell-Tak (Corning)-coated XF96 plates in XF media (XF RPMI Medium pH 7.4 containing 2 mM L-glutamine only for GST or supplemented with 10 mM glucose, 2 mM L-glutamine and 1 mM sodium pyruvate for GRA and MST, all from Agilent technologies) via centrifugation to ensure cell attachment. Cells were equilibrated for 1 hr in a non-CO2 incubator before starting the assay.
(§3) To measure the contribution of glycolysis, glutaminolysis and FAO as fuels for mitochondrial metabolism, OCR and ECAR were measured under basal conditions and in response to sequential injections of vehicle, UK5099 (2 μM), BPTES (3 μM) or Etomoxir (4 μM) inhibitors and then 1 μM oligomycin, 1 μM FCCP (Carbonyl cyanide 4-trifluoromethoxyphenylhydrazone) and 0.5 μM rotenone/antimycin A.

[2] = test system: TILs from B16F10 tumor nodules; assay: Seahorse OCR of TILs freshly isolated from B16F10 tumor nodules with Etomoxir; type: cell-based, mouse
Procedure: Lymphocytes from subcutaneous tumors were isolated by dicing the tissues followed by enzymatic digestion in PBS containing collagenase type 4 (2 mg/ml, Worthington Biochemical) and DNase I (0.25 mg/ml, Sigma-Aldrich) for 45 min with occasional shaking at 37° C. Cell suspensions were then twice filtered through 100 μm and 40 μm cell strainers (Thermo Fisher Scientific) to obtain single-cell suspension followed by a PBS wash and red blood cell lysis using RBC Lysis Buffer (Biolegend). TILs were finally isolated by density gradient centrifugation using Percoll (GE Healthcare) and were further purified using CD3c MicroBeads Kit™ (Miltenyi Biotec) according to the manufacturer's instructions. T cell purity was greater than 90%. Fresh TILs were used directly for phenotypic and metabolic analyses or were cultured in complete RPMI medium for functional assays.
as §3

[3] = test system: human CD3+ T cells; assay: Seahorse extracellular flux analysis of CD3-stimulated human CD3+ T cells from healthy donors; type: cell-based; conditions: anti-CD3 plus inhibitor vs vehicle, 48 hr
Procedure: (§4) Human peripheral blood mononuclear cells (PBMC) were obtained from healthy donors by density gradient centrifugation using Ficoll-Paque™ PLUS Media (GE Healthcare). CD3^+ lymphocytes were negatively enriched using human Pan T cell isolation Kit™ (Miltenyi Biotec).
Extracellular acidification rates (ECAR) were measured using the Seahorse XF analyzer (Agilent). Glycolysis Stress Test (GST) and glycolytic rate assay (GRA) were performed according to kit manufacturer's instructions.
as §2, with “test,” for “and MST,”, “hour” for “hr”
For GST, ECAR was measured under basal conditions and in response to 10 mM glucose, 1 μM oligomycin and 50 mM 2-DG successively to calculate basal glycolytic rate, glycolytic capacity (in response to oligomycin), and glycolytic reserve (glycolytic capacity−basal rate). For GRA, ECAR was measured under basal conditions and in response to 0.5 μM rotenone+0.5 μM antimycin A and 50 mM 2-DG successively to calculate basal glycolysis and compensatory glycolysis (in response to rotenone+antimycin A). Results were normalized to total protein quantified using Pierce™ BCA Protein Assay Kit (ThermoFisher Scientific).
Human peripheral blood mononuclear cells (PBMC) were obtained from healthy donors by density gradient centrifugation using Ficoll-Paque™ PLUS Media (GE Healthcare). CD3^+ lymphocytes were negatively enriched using human Pan T cell isolation Kit™ (Miltenyi Biotec). […].
as §1, with “instructions. […]” for “instructions.”
For GST, ECAR and OCR were measured under basal conditions and in response to 10 mM glucose, 1 μM oligomycin and 50 mM 2-DG successively to calculate basal glycolytic rate, glycolytic capacity (in response to oligomycin), and glycolytic reserve (glycolytic capacity basal rate).
For GRA, ECAR and OCR were measured under basal conditions and in response to 0.5 μM roteone/antimycin A and 50 mM 2-DG successively to calculate basal glycolysis and compensatory glycolysis (in response to rotenone/antimycin A).

[4] = test system: human CD3+ T cells; assay: IFN-γ ELISPOT on human CD3+ T cells from healthy donors; type: cell-based; conditions: inhibitor vs vehicle, 48 hr, listed as TM
[5] = target: T1, Sirt2 deacetylase activity (Homo sapiens, UniProt Q8IXJ6); assay: Western blot of acetylated α-tubulin in human CD3+ enriched T cells; type: cell-based; conditions: 48 hr, listed as TM
T1 construct: endogenous in cells; host or cells: human CD3+ T cells enriched from PBMC of healthy donors
T1 sequence (Q8IXJ6 1-389): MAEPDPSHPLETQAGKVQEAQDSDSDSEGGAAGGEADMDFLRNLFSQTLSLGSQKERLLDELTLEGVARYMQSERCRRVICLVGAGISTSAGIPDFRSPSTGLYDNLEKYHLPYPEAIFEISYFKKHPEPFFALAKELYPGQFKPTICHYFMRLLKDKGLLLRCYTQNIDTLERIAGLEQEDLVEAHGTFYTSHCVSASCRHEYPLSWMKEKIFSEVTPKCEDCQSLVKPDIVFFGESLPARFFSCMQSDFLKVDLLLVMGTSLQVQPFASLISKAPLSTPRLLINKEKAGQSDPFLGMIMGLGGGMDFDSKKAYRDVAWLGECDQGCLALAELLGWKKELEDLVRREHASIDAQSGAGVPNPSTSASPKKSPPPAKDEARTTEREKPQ
Procedure: as §4
Whole cell lysates were prepared using lysis buffer (Pierce RIPA buffer, ThermoFisher Scientific) supplemented with cOmplete™ Protease Inhibitor Cocktail and PhosSTOP Phosphatase Inhibitor (Roche Applied Science).
Cell lysates (20 ug) or IP samples were loaded onto 10% SDS-PAGE and separated by electrophoresis followed by semi-dry transfer into polyvinylidene fluoride membranes (Immun-Blot PVDF membrane, Bio-Rad) using Trans-Blot Turbo transfer system (Bio-Rad). After transfer, the membranes were blocked at room temperature with Tris-buffered saline (TBS) containing 0.05% Tween-20 (TBST) and 5% (w/v) milk for 1 h and then incubated overnight at 4° C. with a specific primary antibody (indicated below). […] After washing 3 times with TBST, bound antibodies were detected by chemiluminescence using the Pierce™ ECL Western Blotting Substrate and the Super Signal West Femto Maximum Sensitivity Substrate kits (ThermoFisher Scientific). […]

[6] = test system: Pmel T cells; assay: IFN-γ ELISPOT on gp100-stimulated Pmel T cells; type: cell-based, mouse; conditions: gp100-stimulated Sirt2KO (Sirt2−/−) Pmel T cells
Procedure: Spleens and/or Lymph nodes (LN) were collected from WT, Sirt2KO, Pmel/WT, Pmel/Sirt2KO mice and processed into single-cell suspensions. CD3^+, CD4^+ and CD8^+ T cells were negatively enriched using Mouse Pan T cell, CD4^+ T cell and CD8^+ T cell isolation Kits™ respectively according to the manufacturers' instructions. The purity of the isolated cells was confirmed by flow cytometry (>95%). Purified T cells were cultured in completed RPMI 1640 medium (ThermoFisher Scientific) supplemented with 10% (vol/vol) Fetal bovine serum (FBS, Biowest) and 1% (vol/vol) penicillin/streptomycin (P/S, Thomas Scientific Inc). […]
The number of IFN-γ producing cells was evaluated in an ELISPOT assay. […] After washing steps and biotinylated anti-IFN-γ antibody (R4-6A2, ThermoFisher Scientific)+Streptavidin-HRP (BD Bioscience) labeling, spots were detected using AEC Substrate Kit (BD Biosciences) and counted using an AID ELISPOT Reader System (Autoimmun Diagnostika GmbH). […]
The number of IFN-γ producing cells was evaluated in an ELISPOT assay. […] After washing steps and successive biotinylated anti-IFN-γ antibody (R4-6A2, Mabtech, Inc.) and Streptavidin-HRP (BD Bioscience) labeling, spots were detected using AEC Substrate Kit (BD Biosciences) and counted using an AID ELISPOT Reader System (Autoimmun Diagnostika GmbH).

Compound: O=C(Cc1ccccc1)Nc1nnc(CCSCCc2nnc(NC(=O)Cc3ccccc3)s2)s1 [BPTES]
- maximal respiration [1]: insensitive
- maximal respiration (in response of FCCP) [1]: significantly suppressed

Compound: CCOC(=O)[C@@]1(CCCCCCOc2ccc(Cl)cc2)CO1 [Etomoxir]
- maximal respiration [1]: insensitive
- maximal respiration (in response of FCCP) [1]: significantly suppressed
- maximal respiration ([2]; Sirt2−/− TILs): remained resistant
- maximal respiration ([2]; WT TILs): decreases

Compound: CCCCCCCCCCCCCC(=S)NCCCC[C@H](NC(=O)OCc1ccccc1)C(=O)Nc1ccccc1 [Thiomyristoyl]
- OxPhos [3]: increased
- aerobic glycolysis (ECAR/PER) ([3]; listed as TM): increased; also recorded: augments
- IFN-γ production (effector function) [4]: increased; also recorded: augments
- capacity to block Sirt2 deacetylase activity, monitored by acetylated α-tubulin levels [5]: confirmed; also recorded: validated

Compound: N#C/C(=C\c1cn(-c2ccccc2)c2ccccc12)C(=O)O [UK5099]
- maximal respiration [1]: insensitive
- maximal respiration (in response of FCCP) [1]: significantly suppressed

Compound: CC[C@H]1/C=C/C=C/C[C@@H](C)[C@H](O)[C@@](C)(O)C(=O)[C@@H](C)[C@H](O)[C@@H](C)C(=O)[C@@H](C)[C@H](O)[C@@H](C)/C=C/C(=O)O[C@@H]2[C@H](C)[C@H](CC1)O[C@]1(CC[C@H](C)[C@H](C[C@@H](C)O)O1)[C@H]2C [oligomycin]
- IFN-γ release [6]: suppressed
